# Results taken from US6413228B1, “Devices, methods and systems for collecting material from a breast duct” (Pro Duct Health, Inc., priority 1998, dated 2002).
# Tested on: breast ducts of live rabbits
# Assay: Mannitol solution introduced into breast ducts of live rabbit: ductal fluid collection
# Format: in vivo, New Zealand rabbit
# Conditions: for recovery (out-flow liquid collected from duct): about an hour after injection
# Description: The objective of these experiments was to test the effects of the introduction of a solution containing mannitol on the secretion of fluid from the breast ducts of live rabbits. New Zealand rabbit #3242, female, from Kraelik Farm in California weighing 4.1 kg was used. The rabbit was anesthetized by injection of 200 mg of ketamine and 40 mg of Zylazine. A second injection of 100 mg of ketamine and 20 mg of xylazine was made 2 hours later to maintain the rabbit in a deep plane of anesthesia. The thorax and abdomen of the rabbit was shaved to expose the breasts and nipples.
# A single lumen blue color catheter (O.D. 0.23″ ID 0.017; O.D. at the tip 0.011″-0.012″) was inserted into a duct in each nipple. Three nipples were tested, and 2 ducts per nipple were accessed with a catheter. The nipples were identified A, B, and C.
# A duct on nipple A was injected with 0.20 ml of a 12.5% solution of D-Mannitol in H2O (available from Sigma Chemicals, St. Louis, Mo. cat# M-9546 lot 6710402: C6H14O6 FW 182.2) with a single catheter. The control duct on nipple A was injected with 0.20 ml of phosphate buffered saline (PBS). A microfuge tube was attached to the end of each catheter to collect out flow liquid. Ten minutes later 0.2 ml of a 12.5% solution of D-Mannitol in H2O was injected into the first duct and the second duct was injected with 0.20 ml of phosphate buffered saline, for a total volume injected in each duct of 0.40 ml.
# A duct on nipple B was injected with 0.5 ml of a 12.5% solution of D-Mannitol in H2O with a single catheter. The control duct on nipple B was injected with […] of phosphate buffered saline (PBS). A microfuge tube was attached to the end of each catheter to collect out-flow liquid.
# A duct on nipple C was injected with 0.7 ml of a 12.5% solution of D-Mannitol in H2O with a single catheter. The control duct on nipple C was injected with 0.70 ml of phosphate buffered saline (PBS). A microfuge tube was attached to the end of each catheter to collect out flow liquid.
# About an hour after the fluid containing mannitol or PBS was injected into the ducts via the catheters, the microfuge tubes were checked for whether any fluid was returned.
# Davidson green dye (1 ul) was added to each microfuge tube containing fluid for the purpose of taking a picture. The rabbit was euthanized by IV injection of supersaturated KC1. PBS (1.5 ul) was added to each collection. The cells were spun onto Shandon coated slide using megafunnel and cytospin-3 machine (Shandon, Inc. located in Pittsburgh, Pa.) at a speed of 1500/per minute for 15 minutes. The cells were fixed on the slide in 95% ethanol for 10 minutes. The cells were stained using Hematoxylin and Eosin (HE) method of cytology of collected fluid.
compound,measurement,setting,value
"OC[C@@H](O)[C@@H](O)[C@H](O)[C@H](O)CO [mannitol, D-Mannitol]",ducts from which fluid can be collected,ducts injected with mannitol solution (PBS control: 1 out of 3),three out of three
same,recovery (out-flow liquid collected from duct),"nipple A, duct A1, 0.4 ml mannitol 12.5% in H2O injected intraductally (2 x 0.2 ml)",310 ul liquid
same,recovery (out-flow liquid collected from duct),"nipple B, duct B1, 0.5 ml mannitol 12.5% in H2O injected intraductally",490 ul liquid
same,recovery (out-flow liquid collected from duct),"nipple C, duct C1, 0.7 ml mannitol 12.5% in H2O injected intraductally",280 ul liquid
